Experimental findings from patent US4981848A, “Alpha-adrenergic receptor antagonists” (SmithKline Beecham Corporation, priority 1989, dated 1991) are described below.

For this assay, the system named is spontaneously hypertensive rats. Description: antihypertensive activity in the spontaneously hypertensive rat model. The note with it: oral administration at 20 mg/kg. Format: in vivo. On the procedure: The antihypertensive activity of certain compounds of the present invention was determined using the spontaneously hypertensive rat model. The details of this in vivo test are found in Roesler, J. M., et al., J. Pharmacol. Exp. Ther., 236:1-7 (1986).

In the case of “N-[(7-Chloro-3,4,5,6-tetrahydro-4-methylthieno[4,3,2-ef][3]benzazepin-2-yl)methyl]2-methylpropanesulfonamide [Example 7]”, the arterial blood pressure result was “dose related reduction in arterial blood pressure”.
